Test results published in US8158621B2, “Methods of treating or preventing autoimmune diseases with 2,4-pyrimidinediamine compounds” (Rigel Pharmaceuticals, Inc., priority 2002, dated 2012).
Like-named read-outs stand apart in the source and are kept apart here.

Test system: Human Jurkat T-cells (clone N)
Test: Jurkat T-cell activation (anti-TCR, CD69 upregulation)
Format: cell-based
Method: The screening process took place over three days.
On the first day of the screen, cultured cells were spun down on a centrifuge (1000 rpm, 5 minutes) and resuspended at 3.0×10^5 cells/ml in RPMI+5% FBS. On the second day of the screen, cells were spun down at 1000 rpm for 5 minutes and resuspended in RPMI+5% FBS at 1.3×10^5 cells/ml. 85 μl of this cell suspension were added to the wells of U-bottom 96 well plates (Corning) 85 μl of compound or diluted RPMI+5% FBS (as a control) only was added to each well and incubated at 37° C. for 1 hour. The cells were then stimulated with anti-TCR (C305) at: 500 ng/ml by adding a 8× solution in 25 μl to the plated cells. The cells were then incubated at 37° C. for 20 hrs.
On the third day of the screen, the plates were spun at 2500 RPM for 1 minute on a Beckman GS-6R centrifuge, and the medium was then removed. 50 μl staining solution (1:100 dilution of anti-CD69-APC antibody (Becton Dickenson) in PBS+2% FBS) was then added to each well, followed by incubation of the plates 4 degrees for 20 minutes in the dark. 150 μl of wash buffer (PBS+2% FBS) was then added to each well, and the plates were spun at 3000 RPM for 1 minute. The supernatant was again removed, and the pellet was resuspended by vortexing gently. 75 μl of PBS+2% FBS +Cytofix (1:4 dilution) was then added, the plates gently vortexed and wrap in aluminum foil. Cells from the plates were read using a flow cytometer coupled to an automated liquid handling system.
Varied concentrations of compound were compared to solvent only to determine the inhibition of T-cell activation IC50 of each compound.

IC50	SMILES	further results
1.1 µM	CNC(=O)COc1cccc(Nc2ncc(F)c(Nc3cccc(C(C)=O)c3)n2)c1 [Compound R950371]	–
–	CNC(=O)c1cc2cc(Nc3ncc(F)c(Nc4cccc(C(C)(C)C)c4)n3)ccc2o1 [Compound R940291]	IC50 (Homo sapiens, Jurkat): 9.45 µM
> 10 µM	COC(=O)Cn1ncc2cc(Nc3ncc(F)c(Nc4cccc(O)c4)n3)ccc21 [Compound R935237]	–
–	CCOC(=O)CNc1nc(NCC(=O)OCC)c([N+](=O)[O-])c(C(=O)OCC)n1 [Compound R925864]	IC50 (Homo sapiens, Jurkat): 19.1 µM
6.71 µM	CC(C)(C)c1cccc(Nc2nc(Nc3cccc(OCCO)c3)ncc2F)c1 [Compound R940282]	–
5.34 µM	Cc1noc(COc2ccc(Nc3nc(Nc4ccc5c(c4)OCCO5)ncc3F)cc2)n1 [Compound R935145]	–
1.22 µM	O=C(COc1cccc(Nc2ncc(F)c(Nc3ccc4c(c3)OCCO4)n2)c1)NCC(O)CO (centres unmarked) [Compound R926782]	–
–	Oc1cccc(Nc2ncc(F)c(NCc3csc4ccc(Cl)cc34)n2)c1 [Compound R926722]	IC50 (Homo sapiens, Jurkat): > 10 µM
> 10 µM	CCOC(=O)c1cnc(Nc2ccc3c(c2)NC(=O)CO3)nc1Nc1ccc2c(c1)NC(=O)CO2 [Compound R926325]	–
2.94 µM	CNC(=O)COc1cccc(Nc2ncc(F)c(Nc3ccc4c(c3)OCC(=O)N4C)n2)c1 [Compound R909261]	–
–	COc1ccc(Nc2ncc(F)c(Nc3ccc4c(c3)OCCO4)n2)c(C)c1 [Compound R926845]	IC50 (Homo sapiens, Jurkat): > 10 µM
–	N#Cc1cnc(Nc2ccc3c(c2)OCCO3)nc1Nc1ccc2c(c1)OCCO2 [Compound R925773]	IC50 (Homo sapiens, Jurkat): 14.4 µM
5.7 µM	COCOc1ccc(Nc2nc(Nc3cccc(O)c3)ncc2F)c(F)c1 [Compound R926680]	–
3.28 µM	NC(=O)COc1cccc(Nc2ncc(F)c(Nc3ccc4c(c3)OCCO4)n2)c1 [Compound R926747]	–
10.7 µM	COC(=O)Cn1ncc2ccc(Nc3ncc(F)c(Nc4ccc5cnn(CC(=O)OC)c5c4)n3)cc21 [Compound R935205]	–
–	O=[N+]([O-])c1ccc(O)c(Nc2ccnc(Nc3cc([N+](=O)[O-])ccc3O)n2)c1 [Compound R950155]	IC50 (Homo sapiens): > 10 µM
5.07 µM	CON=C(N)COc1ccc(Nc2ncc(F)c(Nc3cccc(O)c3)n2)cc1 [Compound R945167]	–
–	CC(C)(C)OC(=O)Nc1ccc(Nc2ncc(F)c(Nc3ccc(NC(=O)OC(C)(C)C)cc3)n2)cc1 [Compound R950120]	IC50 (Homo sapiens, Jurkat): 12.1 µM
> 10 µM	COC(=O)COc1ccc(Nc2ncc(C)c(Nc3ccc(OCC(=O)OC)cc3)n2)cc1 [Compound R926258]	–
> 10 µM	COC(=O)Cn1ncc2cc(Nc3nc(Nc4ccc(OC(C)C)cc4)ncc3F)ccc21 [Compound R935242]	–
0.732 µM	Cn1ncc2cc(Nc3ncc(F)c(Nc4cccc(O)c4)n3)ccc21 [Compound R935194]	–
> 10 µM	CCOC(=O)C(C)(C)c1ccc(Nc2nc(Nc3ccc(OCC(=O)OC)cc3)ncc2F)cc1 [Compound R935157]	–
–	CCOC(=O)C1CCN(C(=O)c2cccc(Nc3nc(Nc4cccc(O)c4)ncc3F)c2)CC1 [Compound R926940]	IC50 (Homo sapiens, Jurkat): > 10 µM
1.71 µM	CNC(=O)COc1cccc(Nc2ncc(F)c(Nc3cnc4c(c3)OCC(=O)N4)n2)c1 [Compound R945242]	–
2.74 µM	CNC(=O)COc1cc(Nc2ncc(F)c(Nc3cccc(O)c3)n2)ccc1C [Compound R926757]	–
4.68 µM	CNC(=O)Cn1ncc2ccc(Nc3ncc(F)c(Nc4ccc5c(c4)OCCO5)n3)cc21 [Compound R935212]	–
> 10 µM	CC(C)Oc1cccc(Nc2nc(Nc3ccc4oc(C(=O)N5CCOCC5)cc4c3)ncc2F)c1 [Compound R926489]	–
3.54 µM	COC(=O)Cn1ncc2cc(Nc3ncc(F)c(Nc4ccc(OC(C)C)cc4)n3)ccc21 [Compound R935222]	–

IC50	SMILES	further results
1.8 µM	Fc1cnc(Nc2ccc3cn[nH]c3c2)nc1Nc1ccc2cn[nH]c2c1 [Compound R935188]	–
1.23 µM	Cc1cc(Nc2nc(Nc3cccc(OCC(=O)N4CCNCC4)c3)ncc2F)cc(Cl)c1O [Compound R945149]	–
4.65 µM	CCOC(=O)C(C)(C)Oc1cccc(Nc2ncc(F)c(Nc3ccc4cc[nH]c4c3)n2)c1 [Compound R926909]	–
> 10 µM	COC(=O)c1cc(Nc2nc(Nc3ccc4c(c3)OCCO4)ncc2F)cn1C [Compound R935166]	–
–	OCCN(CCO)c1cccc(Nc2ncc(F)c(Nc3ccc4c(c3)OCCO4)n2)c1 [Compound R950209]	IC50 (Homo sapiens, Jurkat): 3.8 µM
3.3 µM	CNC(=O)COc1ccc(Nc2ncc(F)c(Nc3ccc4c(c3)OCCO4)n2)cc1 [Compound R926708]	–
> 10 µM	CCOC(=O)COc1ccc(Nc2ncc(F)c(Nc3ccc(OCC(=O)OCC)c(Cl)c3)n2)cc1Cl [Compound R926676]	–
–	COc1cc(Nc2ncc(F)c(Nc3cc(OC)c(OC)c(OC)c3)n2)cc(OC)c1OC [Compound R926688]	IC50 (Homo sapiens, Jurkat): 3.78 µM
2.48 µM	CNC(=O)COc1cccc(Nc2ncc(F)c(Nc3ccc(C)c(Cl)c3)n2)c1 [Compound R926839]	–
> 10 µM	COC(=O)c1cc2cc(Nc3ncc(F)c(Nc4ccc5c(c4)C(=O)OC5)n3)ccc2o1 [Compound R940294]	–
–	Fc1cnc(Nc2ccc(SC(F)(F)F)cc2)nc1Nc1ccc2c(c1)OCCO2 [Compound R926899]	IC50 (Homo sapiens, Jurkat): > 10 µM
> 10 µM	COC(=O)COc1cccc(Nc2ncc(F)c(Nc3cccc(OCC(=O)OC)c3)n2)c1 [Compound R926255]	–
–	COC(=O)c1cc(Nc2ncc(F)c(Nc3cccc(O)c3)n2)cc(C(F)(F)F)c1 [Compound R926863]	IC50 (Homo sapiens, Jurkat): > 10 µM
–	Oc1ccc(CCNc2ncc(Br)c(NCCc3ccc(O)cc3)n2)cc1 [Compound R925792]	IC50 (Homo sapiens, Jurkat): 8.65 µM
3.84 µM	Cc1noc(COc2ccc(Nc3ncc(F)c(Nc4ccc5c(c4)OCCO5)n3)cc2)n1 [Compound R935143]	–
> 10 µM	Nc1cccc(Nc2ncc(F)c(Nc3cccc(NCCOCc4ccccc4)c3)n2)c1 [Compound R950175]	–
–	Cc1ccc(N)cc1Nc1ncc(F)c(Nc2cc(N)ccc2C)n1 [Compound R950157]	IC50 (Homo sapiens, Jurkat): > 10 µM
3.43 µM	CNC(=O)COc1cccc(Nc2ncc(F)c(Nc3ccc4c(c3)C=CCC4)n2)c1 [Compound R926944]	–
> 10 µM	COC(=O)COc1ccc(Nc2ncc(F)c(Nc3ccc(OCC(=O)OC)cc3)n2)cc1 [Compound R926240]	–
1.99 µM	CNC(=O)COc1cccc(Nc2ncc(F)c(Nc3cccc(N(C)C)c3)n2)c1 [Compound R950264]	–
> 10 µM	Cc1noc(COc2ccc(Nc3ncc(F)c(Nc4cccc(O)c4)n3)cc2)n1 [Compound R935141]	–
> 10 µM	O=C(c1cccc(Nc2ncc(F)c(Nc3cccc(O)c3)n2)c1)N1CCOCC1 [Compound R926938]	–
> 10 µM	CCOC(=O)COc1ccc(Nc2nc(Nc3ccc(OCC(=O)OCC)cc3)c(NC(=O)NC3CCCC3)c(C(=O)OCC)n2)cc1 [Compound R926588]	–
> 10 µM	COC(=O)COc1ccc(Nc2ccnc(Nc3ccc(OCC(=O)OC)cc3)n2)cc1 [Compound R926256]	–
2.58 µM	CNC(=O)COc1cccc(Nc2ncc(F)c(Nc3ccc4c(c3)C=CCO4)n2)c1 [Compound R950385]	–
6.04 µM	NC(=O)COc1ccc(Nc2nc(Nc3cccc(O)c3)ncc2F)cc1 [Compound R945063]	–
5.13 µM	CN1CCN(C(=O)CNc2cccc(Nc3ncc(F)c(Nc4ccc5c(c4)OCCO5)n3)c2)CC1 [Compound R950194]	–

SMILES	IC50	further results
Oc1cccc(Nc2ncc(F)c(Nc3cccc(O)c3)n2)c1 [Compound R926461]	3.39 µM	–
